Patent US20060115431A1, “Procedures of cellular labelling with paramagnetic complexes for mri applications” (Bracco Imaging S.p.A., priority 2002, published 2006)

Legend:
[1] = system: esterase from swine liver [EC3.1.1.1]; experiment: In vitro evaluation of esterase activity on Gd-1 particles (turbidity, water proton relaxation rate R1); type: biochemical
Protocol: (§1) The activity of two different enzymes (esterase from swine liver [EC3.1.1.1] and lipase from Chromobacterium viscosum [EC 3.1.1.34]) was evaluated on Gd-1 particles.
(§2) This behaviour was confirmed by measurements of the water protons relaxation rate (R1) on a NMR spectrometer (Stelar Spinmaster) operating at 0.5T and 298K.
(§3) In the presence of the esterase (2 mg) R1 rapidly rises and after 2-3 hours reaches the value expected for a soluble Gd(III) complex resulting from the hydrolysis of the ester bonds of the Gd-1 complex. The differences in the two observed curves, and therefore the different reaction kinetics, can be ascribed to the different amounts of active units per mg of the two enzymes added to the Gd complex suspension.

[2] = target: lipase from Chromobacterium viscosum [EC 3.1.1.34] (Pseudarthrobacter phenanthrenivorans, UniProt P0DUB9); experiment: In vitro evaluation of lipase activity on Gd-1 particles (turbidity, R1); type: biochemical; details: HEPES buffer 50 mM, pH=8, 310K
lipase from Chromobacterium viscosum [EC 3.1.1.34], sequence (P0DUB9 whole entry): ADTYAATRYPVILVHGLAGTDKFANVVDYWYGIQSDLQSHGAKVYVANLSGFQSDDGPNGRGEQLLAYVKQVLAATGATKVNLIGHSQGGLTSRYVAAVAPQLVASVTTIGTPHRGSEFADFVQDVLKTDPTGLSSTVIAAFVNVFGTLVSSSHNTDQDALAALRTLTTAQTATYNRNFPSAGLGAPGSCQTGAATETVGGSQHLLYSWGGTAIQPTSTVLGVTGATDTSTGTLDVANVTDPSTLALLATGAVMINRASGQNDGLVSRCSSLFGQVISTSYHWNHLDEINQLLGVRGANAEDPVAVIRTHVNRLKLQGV
Protocol: as §1, §2, §3

macrophages esterase = experiment: Macrophage lysate esterase on Gd-1 (R1 increase); type: biochemical; details: about 4×10^6 macrophages lysed by sonication, about 1 mg Gd-1
Protocol: Afterwards, the macrophages esterase was tested. For this purpose, about 4×10^6 macrophages were subjected to lysis by sonication and about 1 mg Gd-1 was added to the lysate. The enzyme present in the cellular lysate rapidly cleaves the hydrophobic ester groups, thus releasing the soluble Gd complex. The formation of soluble Gd complex is well followed by the increase of water proton relaxation rate (FIG. 2). After about two hours the enzymatic reaction reaches the steady state.

U937 monocytes = experiment: Phagocytic uptake of Gd-1 particles on U937 monocytes differentiated with TPA; type: cell-based
Protocol: The phagocytic uptake of the Gd-1 particles was carried out on U937 monocytes previously treated for three days with TPA to induce cell differentiation. The size of the Gd-1 particles was determined by electron microscope observation and the measured diameter ranged from 0.5 to 10 μm. Most particles had diameter <10 μm, which is sufficiently small to allow the phagocytic process. The uptake was carried out at 37° C. and the cells were incubated with two different amounts of Gd-1 at subsequent times (1 to 12 hours). After incubation at 37° C. for several hours, the medium was removed and the cells were washed three times with 5 mL PBS. In these conditions, Gd-1 particles suspended in the medium are not solubilised; in fact, the relaxivity of the medium remains very close to that of pure water (0.45 s^−1). The amount of Gd(III) detected in the cells is directly proportional to incubation time and in 12 hours the saturation of the kinetic curve is not reached (FIG. 3). As expected, the amount of phagocyted Gd(III) is proportional to the amount of complex added to the culture medium at time zero. It is interesting to compare this behaviour with the water proton relaxation rate in the cytosolic extract. This was obtained by freezing three times the cells at −80° C. after completion of phagocytosis. […]

[3] = system: U937 monocytes differentiated to macrophages; experiment: Intracellular esterase activity on Gd-1 in intact cells; type: cell-based
Protocol: An experiment for evaluating the enzymatic activity inside intact cells was set up, using Gd-1 particles as probes. For this purpose, different capsules containing about 2×10^6 cells (U937 monocytes differentiated to macrophages as described above) were incubated with ca. 5 mg of Gd-1 particles suspended in 5 mL medium (RPMI) for four hours at 37° C. After this period the cells were washed three times with PBS, covered with further 5 ml RPMI and re-incubated for different times at 37° C. In this way it was possible to isolate the contribution deriving from the esterase-catalysed hydrolysis of Gd-1 particles for the time interval that […] the internalisation step. The proton relaxation rate was measured at successive time intervals (0.5, 1, 2 hours). After 4 hours incubation in the presence of Gd-1 particles the cells internalise about 60 nmol complex, but only 50% of the internalised particles is hydrolysed in this time and contributes to the total relaxivity. In fact, the relaxivity of the cytosolic extract is 2.5 when the cells are resuspended in a medium devoid of Gd-1 and raises to 3.7 in the following two hours of enzymatic hydrolysis. It can be therefore assumed that 80% of Gd-1 internalised particles have been solubilised by cellular esterases (FIG. 5).

neutrophiles = experiment: Labelling of neutrophiles with sonicated Gd-1 particles; type: cell-based; details: ca. […]10^6 neutrophiles, 0.4 mg particles, 37° C.
Protocol: One of the applications for labelled cells deals with the identification of infection loci in patients affected by fever of unknown origin. This imply the labelling of Neutrophiles obtained from the standard procedures from a specimen of blood drawn from the patient. After labelling the neutrophiles have to be re-injected in the patient who is subjected to MRI examination.
The labelling of neutrophiles (ca. 2.5×10^6) has been carried out by incubating them (5 ml) in a medium containing 0.4 mg of particles of Gd-1 prepared according to example 5.
After 2.5 h of incubation at 37° C., the cells were harvested, whashed several times with PBS, then analyzed. The content of Gd per mg protein is 8.8×10^−8 moles, i.e. an amount that after the intracellular degradation of the particle, is well sufficient to allow the visualization of the labelled cells by MRI techniques.

U937 cells = experiment: Internalization assay of sonicated Gd-1 particles with U937 cells endowed with macrophagic activity; type: cell-based; details: 0.2 mg Gd-1 in medium, ca. 4 hours incubation
Protocol: The particles obtained by the sonication procedure described in example 5 has been tested in an internalization assay with the U937 cells endowed with macrophagic activity. The incubation medium contains 0.2 mg of Gd-1 (total). After ca. 4 hours of incubation the amount of Gd internalized reached a maximum value of 2×10^−8 moles/mg of protein. This means that ca 10% is taken up by the cells. Such amount is well sufficient to allow the visualisation of these cells. Once the enzymatic degradation process proceeds the signal intensity progressively increases to reach a steady state which lasts for a time long enough for the type of applications of this protocol.

Compound | turbidity of the suspension in the presence of the enzyme ([1]; HEPES buffer 50 mM, pH=8, 310K) | time for R1 to reach the value expected for a soluble Gd(III) complex ([1]; esterase 2 mg) [h] | water protons relaxation rate (R1) in the absence of enzyme ([1]; no enzyme, 0.5T, 298K, not different from pure water) [s⁻¹] | turbidity of the suspension in the presence of the enzyme [2] | time for the enzymatic reaction to reach the steady state (macrophages esterase) | relaxivity of the medium with suspended particles (U937 monocytes; culture medium, 37° C., particles not solubilised) [s⁻¹] | amount of complex internalised by the cells ([3]; about 2×10^6 cells, ca. 5 mg particles in 5 mL RPMI, 4 hours, 37° C.) | fraction of the internalised particles hydrolysed ([3]; after 4 hours incubation with particles) [%] | relaxivity of the cytosolic extract ([3]; after the following two hours of enzymatic hydrolysis) | fraction of internalised particles solubilised by cellular esterases ([3]; after two further hours of hydrolysis) [%] | relaxivity of the cytosolic extract ([3]; when cells are resuspended in a medium devoid of Gd-1) | content of Gd per mg protein (neutrophiles) [mol] | amount of Gd internalized (maximum value) (U937 cells) | fraction taken up by the cells (U937 cells) [%] | presence of the complex in the cells (relaxation rate of water protons in the cytosolic extract) (U937 monocytes; soluble complex incubated in the same conditions as Gd-1 particles)
CCCCCCCCCCCCCCCCCC(=O)OCCOCCNC(=O)CN(CCN(CCN(CC(=O)O)CC(=O)NCCOCCOC(=O)CCCCCCCCCCCCCCCCC)CC(=O)O)CC(=O)O [Gd-1] | progressive decrease in turbidity | 2 to 3 | 0.38 | progressive decrease in turbidity | about two | ~0.45 | about 60 nmol | 50 | 3.7 | 80 | 2.5 | 8.8e-08 | 2×10^−8 moles/mg of protein | ~10 | –
CC(O)CN1CCN(CC(=O)[O-])CCN(CC(=O)[O-])CCN(CC(=O)[O-])CC1.[Gd+3] (stereo not drawn) [Gd-HPDO3A, reference compound] | – | – | – | – | – | – | – | – | – | – | – | – | – | – | complete absence
